In patent publication US9173935B2, “Phospholipid drug analogs” (Telormedix SA, priority 2010, dated 2015):
Like-named read-outs stand apart in the source and are kept apart here.

What was measured:
[1] = Intravenous pharmacokinetics in the mouse; settings: for Plasma concentration Mean ± S.D.: 1 mg/kg IV
Description: An IV bolus was administered into the caudal vein at a dose of 1 mg/kg in […]. The compound weight was 2.08/10.04 ml. 24 mice were studied. […] […] Animals were sacrificed using ethyl ether at the conclusion of the experiment.
Sample preparation: In a Sirocco filter plate, 100 microliters of plasma were added to 300 microliters of ACN/MeOH spiked with 5 microliters of IS (IV298 10 micrograms per ml) plus 10 microliters of 5% H3PO4. The plate was shaken for 10 minutes at 80 rpm and then filtered under vacuum for 5 minutes.
Analytical method: LC/MS/MS: Premiere XE, Eluent: water (A) MeOH(B) plus 0.1% HCOOH gradient. 15% B to 100% B from 0.1 to 0.5, then isocratic 100% B up to 1.5 minutes, flow 0.8 ml/min; Column Acquity UPLC BEH C18 1.7 microm 2.1×50 mm, injection volume of 5 microliters in a T column at 50° C. ESI positive, MRM, Extractor 5V; Capillary 3.5 kV; T source 115° C.; T desolv. 450° C.
Data analysis: Non-compartmental analysis WinNonlin 5.1; linear trapezoidal, uniform weight.

[2] = tested on: Salmonella typhimurium TA1535, TA1537, TA98, TA100; experiment: Bacterial mutation assay, Salmonella typhimurium; settings: absence or presence of S9 metabolism
Description: The five tester strains TA1535, TA1537, TA98, TA100 and WP2 uvrA were used. Experiments were performed both in the absence and presence of metabolic activation, using liver S9 fraction from rats pre-treated with phenobarbitone and betanaphthoflavone. SC12 was used as a solution in dimethylsulfoxide (DMSO).

CYP3A4 = CYP3A4 (Homo sapiens (Human), UniProt P08684); experiment: Fluorescent High Throughput P450 assay, CYP3A4; assay type: biochemical; settings: substrate BFC; read-out: CYP3A4 IC50 (Mean ± S.D.)
Chain of CYP3A4 (P08684 whole entry, looked up): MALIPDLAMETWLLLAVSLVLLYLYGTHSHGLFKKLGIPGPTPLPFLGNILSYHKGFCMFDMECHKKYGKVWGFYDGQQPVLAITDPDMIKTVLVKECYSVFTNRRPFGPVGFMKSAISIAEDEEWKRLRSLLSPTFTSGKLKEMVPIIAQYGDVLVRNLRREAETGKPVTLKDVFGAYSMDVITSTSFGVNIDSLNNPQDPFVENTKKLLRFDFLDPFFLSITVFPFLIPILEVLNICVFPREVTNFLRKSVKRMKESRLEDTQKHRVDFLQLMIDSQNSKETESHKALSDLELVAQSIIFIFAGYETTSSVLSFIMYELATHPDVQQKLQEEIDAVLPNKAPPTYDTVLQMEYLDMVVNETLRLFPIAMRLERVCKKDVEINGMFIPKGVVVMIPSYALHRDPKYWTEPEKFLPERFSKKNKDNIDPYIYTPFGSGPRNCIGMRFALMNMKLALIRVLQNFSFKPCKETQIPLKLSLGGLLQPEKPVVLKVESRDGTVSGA
Description: (§1) Inhibition of the P450 isoforms was measured in specific assays using specific substrates that become fluorescent upon CYP metabolism. Compounds, dissolved in ACN (acetonitrile) (CYP2E1, CYP2C8, CYP2B6, CYP3A5) or DMSO (all remaining isoforms), were tested in duplicate (n=2) in concentration-response curves (eight concentrations) in a 96-well plate containing incubation/NADPH regenerating buffer. Specific isoenzymes and substrates were added and incubated at 37° C. Reactions were terminated at different times, depending on the assays, and plates read on a Fluoroskan Ascent at the appropriate emission/excitation wavelengths. Concentration-response curves performed in duplicate for known inhibitors for each isoenzyme were tested in every assay as positive control.

whole blood = experiment: Cytokine secretion in human whole blood assay (ELISA); assay type: cell-based
Description: A volume of approximately 55 mL fresh whole blood was drawn in heparinized Vacutainers from three healthy adult anonymous volunteers as described (J. A. Ida, Journal of Immunol Methods, 310, 2006, 86-99). […] Before drawing the blood, the compounds were added to 96 well round bottom plates in a 10× diluted sample at 20 ul. The compounds were diluted in RPMI media without serum but with antibiotics. Antibiotics were added at a 10× concentration. After drawing the blood, the whole blood sample was gently mixed to obtain a homogeneous sample, and 180 ul was added to each well.
After 6 hours and 24 hours incubation, plasma was removed for ELISA (IL-6, IL-10, IL-12p40 and IFN-alpha). ELISA was made at the 6 and 24 hours time point for all concentrations. After 24 hours incubation with selected compound concentrations, cells were analyzed for activation markers by FACS.
All compounds were setup in concentrations at 0-0.01-0.03-0.1-0.5-2.0-10.0 micromolar as the final concentration. Vehicle control was DMSO control, where we used the highest concentration used for the compounds. After addition of blood, all plates were gently agitated at 37° C. and 5% CO2 until harvest. The samples were removed after 6 or 24 hours incubation, and pooled into appropriate tubes (2 ml).
Concentrations of cytokines were determined by ELISA from R&D Systems. The results were analyzed in Graph Pad Prism in order to prepare dose-response
curves, and for determination of EC50 values. FACS analysis was made by using Becton-Dickinson FACSDiva software and subsequently illustrated in Graph Pad Prism.

CYP3A5 = CYP3A5 (Homo sapiens (Human), UniProt P20815); experiment: Fluorescent High Throughput P450 assay, CYP3A5; assay type: biochemical; settings: substrate BFC; read-out: CYP3A5 IC50 (Mean ± S.D.)
Chain of CYP3A5 (P20815 whole entry, looked up): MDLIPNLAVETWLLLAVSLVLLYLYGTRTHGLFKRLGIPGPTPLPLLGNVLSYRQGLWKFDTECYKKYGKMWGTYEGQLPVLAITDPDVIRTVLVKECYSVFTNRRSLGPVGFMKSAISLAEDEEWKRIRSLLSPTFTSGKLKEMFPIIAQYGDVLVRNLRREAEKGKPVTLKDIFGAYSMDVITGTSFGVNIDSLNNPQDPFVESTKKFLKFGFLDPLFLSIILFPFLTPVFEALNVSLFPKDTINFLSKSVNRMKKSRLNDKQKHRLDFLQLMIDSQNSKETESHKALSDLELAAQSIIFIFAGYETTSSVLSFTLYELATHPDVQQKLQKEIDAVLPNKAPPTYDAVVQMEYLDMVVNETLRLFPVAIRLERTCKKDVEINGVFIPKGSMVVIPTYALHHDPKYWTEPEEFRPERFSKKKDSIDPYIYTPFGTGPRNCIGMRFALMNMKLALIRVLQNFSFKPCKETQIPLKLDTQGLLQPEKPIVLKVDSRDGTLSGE
Description: as §1

[3] = Stability of solid samples with respect to heat (80° C.), HPLC; assay type: physicochemical
Description: Solid samples of each compound were maintained at 80° C. and analyzed by HPLC.

CYP2C8 = CYP2C8 (Homo sapiens (Human), UniProt P10632); experiment: Fluorescent High Throughput P450 assay, CYP2C8; assay type: biochemical; settings: substrate DBF; head of Table 31 prints CYP2CB; read-out: CYP2C8 IC50 (Mean ± S.D.)
Chain of CYP2C8 (P10632 whole entry, looked up): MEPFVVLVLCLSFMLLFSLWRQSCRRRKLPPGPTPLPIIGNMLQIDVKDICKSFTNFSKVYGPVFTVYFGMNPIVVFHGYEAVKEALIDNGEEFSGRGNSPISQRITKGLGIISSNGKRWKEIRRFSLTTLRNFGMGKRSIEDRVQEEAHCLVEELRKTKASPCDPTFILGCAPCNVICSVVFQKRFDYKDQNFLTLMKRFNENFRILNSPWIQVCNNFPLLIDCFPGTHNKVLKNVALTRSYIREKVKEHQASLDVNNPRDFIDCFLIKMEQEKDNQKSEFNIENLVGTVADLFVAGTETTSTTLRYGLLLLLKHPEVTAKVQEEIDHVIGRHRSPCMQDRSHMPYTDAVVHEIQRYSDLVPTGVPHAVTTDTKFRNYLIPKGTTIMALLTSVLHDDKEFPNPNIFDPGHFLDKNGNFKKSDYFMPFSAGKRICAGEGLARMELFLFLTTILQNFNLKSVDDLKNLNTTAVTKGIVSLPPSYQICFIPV
Description: as §1

## CCCCCCCCCCCC(=O)OCC(COP(=O)(O)OCCNC(=O)c1ccc(Cn2c(=O)[nH]c3c(N)nc(OCCOC)nc32)cc1)OC(=O)CCCCCCCCCCC (stereo not drawn) [SC12]
[1]; 1 mg/kg IV bolus, plasma
  AUC INF obs: 12878 ng·min/mL
  AUClast: 11744 ng·min/mL
  C0: 2664 ng/mL
  CI: 77.7 mL/min/kg
  Clast: 6 ng/mL
  Cmax: 541 ng/mL
  MRT: 32 min
  T ½: 130 min
  Tlast: 120 min
  Tmax: 5 min
  Vss: 2.5 L/kg
[1]; 5 min
  Plasma concentration Mean ± S.D.: 540.70 ± 179.99 ng/mL
[1]; 15 min
  Plasma concentration Mean ± S.D.: 22.27 ± 3.16 ng/mL
[1]; 30 min
  Plasma concentration Mean ± S.D.: 10.00 ± 1.68 ng/mL
[1]; 60 min
  Plasma concentration Mean ± S.D.: 7.62 ± 0.72 ng/mL
[1]; 120 min
  Plasma concentration Mean ± S.D.: 6.05 ± 0.78 ng/mL
[1]; 240 min, LLOQ 5 ng/ml
  Plasma concentration Mean ± S.D.: <LLOQ
[1]; 480 min, LLOQ 5 ng/ml
  Plasma concentration Mean ± S.D.: <LLOQ
[1]; 1440 min, LLOQ 5 ng/ml
  Plasma concentration Mean ± S.D.: <LLOQ
[2]; 50.0-5000 micrograms/plate
  Toxicity to tester strains: No toxicity was observed
[2]; up to 5000 micrograms/plate
  Reverse mutation: does not induce reverse mutation
CYP3A4
  IC50: 13600 ± 700 nM
Whole blood; 6 hours incubation
  IL-10 production: no IL-10 production was seen
Whole blood; Donor 1, read-out: EC50-IFN-alpha, 24 h Incubation
  EC50: 200 nM
Whole blood; Donor 1, read-out: EC50-IL-6, 24 h Incubation
  EC50: 220 nM
Whole blood; Donor 1, read-out: EC50-IL-10, 24 h Incubation
  EC50: 1340 nM
Whole blood; Donor 1, read-out: EC50-IL-12p40, 24 h Incubation
  EC50: 4100 nM
Whole blood; Donor 2, read-out: EC50-IFN-alpha, 24 h Incubation
  EC50: 110 nM
Whole blood; Donor 2, read-out: EC50-IL-6, 24 h Incubation
  EC50: 60 nM
Whole blood; Donor 2, read-out: EC50-IL-10, 24 h Incubation
  EC50: 410 nM
Whole blood; Donor 2, read-out: EC50-IL-12p40, 24 h Incubation
  EC50: 1420 nM
Whole blood; Donor 3, read-out: EC50-IFN-alpha, 24 h Incubation
  EC50: 240 nM
Whole blood; Donor 3, read-out: EC50-IL-6, 24 h Incubation
  EC50: 170 nM
Whole blood; Donor 3, read-out: EC50-IL-10, 24 h Incubation
  EC50: 9000 nM
Whole blood; Donor 3, read-out: EC50-IL-12p40, 24 h Incubation
  EC50: 14200 nM
Whole blood; read-out: EC50-IFN-alpha, 6 h Incubation, Donor 1
  EC50: 980 nM
Whole blood; read-out: EC50-IFN-alpha, 6 h Incubation, Donor 2
  EC50: 830 nM
Whole blood; read-out: EC50-IFN-alpha, 6 h Incubation, Donor 3
  EC50: 1660 nM
Whole blood; read-out: EC50-IL-6, 6 h Incubation, Donor 1
  EC50: 570 nM
Whole blood; read-out: EC50-IL-6, 6 h Incubation, Donor 2
  EC50: 180 nM
Whole blood; read-out: EC50-IL-6, 6 h Incubation, Donor 3
  EC50: 370 nM
Whole blood; read-out: EC50-IL-12, 6 h Incubation (IL-12p40), Donor 2
  EC50: 2360 nM
Whole blood; read-out: EC50-IL-12, 6 h Incubation (IL-12p40), Donor 3
  EC50: 3560 nM
CYP3A5
  IC50: 10500 ± 500 nM
[3]; After 2 hrs at 80° C.
  HPLC purity of solid sample: 90% HPLC
[3]; After 22 hrs at 80° C.
  HPLC purity of solid sample: 88% HPLC
[3]; t = 0
  HPLC purity of solid sample: 90% HPLC
CYP2C8
  IC50: > 100000 nM
